These results are taken from patent US11623919B2, “Heterocyclic P2X7 antagonists” (AXXAM S.P.A., priority 2017, dated 2023).

Holding throughout (assay type): cell-based
Assay [1] addresses T1, P2X7 receptor (Homo sapiens, UniProt Q99572).
T1 sequence (Q99572 1-595): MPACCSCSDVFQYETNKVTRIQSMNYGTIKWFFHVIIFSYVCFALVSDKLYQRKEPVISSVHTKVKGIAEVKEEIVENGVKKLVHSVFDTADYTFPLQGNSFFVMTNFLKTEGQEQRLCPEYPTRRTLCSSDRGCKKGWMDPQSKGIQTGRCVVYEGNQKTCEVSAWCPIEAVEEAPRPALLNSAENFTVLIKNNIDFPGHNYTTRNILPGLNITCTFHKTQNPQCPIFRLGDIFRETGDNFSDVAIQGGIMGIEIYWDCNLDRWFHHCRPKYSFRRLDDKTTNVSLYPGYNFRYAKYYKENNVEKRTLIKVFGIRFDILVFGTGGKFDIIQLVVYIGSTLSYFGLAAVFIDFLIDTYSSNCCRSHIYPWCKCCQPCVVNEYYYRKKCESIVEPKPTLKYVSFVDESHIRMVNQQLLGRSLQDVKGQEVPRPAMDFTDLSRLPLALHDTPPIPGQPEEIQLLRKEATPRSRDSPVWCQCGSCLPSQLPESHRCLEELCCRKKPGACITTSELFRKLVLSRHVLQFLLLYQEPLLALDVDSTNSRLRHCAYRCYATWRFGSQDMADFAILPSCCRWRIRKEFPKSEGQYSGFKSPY
Nature of the assay: YO-PRO-1 uptake assay. On the set-up: expressed in transfected cells. Conditions: HEK-293 cells stably transfected with P2X7 receptor; Bz-ATP EC80 (30 μM); Low Divalent Cation Assay Buffer. An excerpt: YO-PRO®-1 is a fluorescent DNA-binding dye with a MW of 374 Da (Molecular Probes®, cat. Y3603). This method is based upon the presumed ability of YO-PRO®-1 to enter through the dilated or “large pore form” of P2X7 receptor and to bind to intracellular DNA whereupon it increases many fold its fluorescence intensity. The dye ha an absorption spectrum compatible with excitation at 488 nm by argon laser sources and its emission wavelength is in the range of 515-575 nm. The aim of this assay was to validate the interaction of antagonists with P2X7 receptor using an alternative readout to Ca2+-sensitive fluorescent dyes.
HEK-293 cells stably transfected with P2X7 receptor were seeded overnight un growth medium at 20,000 cell/well in 384-well plate. 24 hours later, the medium was removed, the cells were washed with Low Divalent Cation Assay Buffer (0.3 mM Ca^2+ and 0 mM Mg^2+) and then pre-loaded with 20 μL/w of 5 μM YO-PRO®-1 dye.
FLIPRTETRA fluorescence measurement immediately started. Then 10 μL/w of test compounds and reference antagonist A438079 at 3×-concentration were injected with the FLIPRTETRA and the kinetic response over a period of five minutes was monitored. A second injection of 10 μL/w of 3× Bz-ATP EC80 (30 μM) was performed with the FLIPRTETRA and the signal of the emitted fluorescence was recorded for additional 60 minutes. All the experiment was carried out with a Low Divalent Cation Assay Buffer (0.3 mM Ca^2+ and 0 mM Mg^2+).
The effect of the test compounds was measured as percent inhibition vs the reference antagonist and IC50 values were calculated accordingly.

Assay [2] concerns the target T1, P2X7 receptor. Nature of the assay: Automated patch-clamp (QPatch16X) P2X7 channel assay. On the set-up: expressed in transfected cells; host or cells: HEK-293. The note with it: HEK-293 cells expressing P2X7 channels; whole-cell, held at -80 mV; 100 microM BzATP; compound 1, 10, 100 and 1000 nM; read-out: Q-Patch (IC50). On the procedure:
In order to directly monitor the block of P2X7 channel, an electrophysiological assay was developed and implemented on the QPatch16X automated electrophysiology instrument.
HEK-293 cells expressing the P2X7 channels were cultured in modified EMEM.
72 hours before experiment, 5 million cells were seeded onto T225 flasks. Just before the experiment cells were washed twice, detached from the flask with trypsin-EDTA, re-suspended in the suspension solution and placed on the QPatch 16x.
The compounds (20 mM in a 100% DMSO) stored at −20° C. were prepared the day of the experiment (a first dilution 1:20 in 100% DMSO to prepare a 1 mM stock solution, then a 1 microM solution in external solution+a serial dilution 1:10).
The standard whole-cell voltage clamp experiments were performed at room temperature. From these experiments the multihole technology was used and the data were sampled at 2 KHz.
The intracellular solution contained (mM) 135 CsF, 10 NaCl, 1 EGTA, 10 HEPES, (pH 7.2 with CsOH) whereas the extracellular contained (mM) 145 NaCl, 4 KCl, 0.5 MgCl2, 1 CaCl2, 10 HEPES, 10 Glc (pH 7.4 with NaOH).
After establishment of the seal and the passage in the whole cell configuration, the cells were held at −80 mV. The P2XR7 current was evoked by applying 100 microM of BzATP alone (4 times) and then in the presence increasing concentrations of the compound under investigation (1, 10, 100 and 1000 nM).
The pre-incubation periods 5 to 8 contain increasing concentrations of the compound of interest (1, 10, 100 and 1000 nM), as illustrated in FIGURE (application protocol).
The maximal inward current evoked by BzATP in absence or presence of increasing concentrations of the compounds under investigation was measured and normalized. The potential […] effect was measured as % of control and as IC50 determined fitting the dose-response curves data with the following equation: Y=100/(1+10^((Log IC50−X)*HillSlope))

For assay [3], the target named is T1, P2X7 receptor. Nature of the assay: Screen Quest Fluo-8 No Wash Calcium Assay (Bz-ATP evoked Ca2+ influx, FLIPR). Conditions: hP2X7; HEK-293 cells stably transfected with P2X7 receptor, Bz-ATP at EC80, Fluo-8 NW; potency ranges A-D. The arrangement: hP2X7 (IC50; nM); other: hP2X7; HEK-293 cells stably transfected with P2X7 receptor, Bz-ATP at EC80, Fluo-8 NW; potency. A digest of the protocol: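 HEK-293 cells stably expressing P2X7 were loaded with Fluo-8 NW for 1 h at RT, then given compound, and 5 min later Bz-ATP at EC80. Fluorescence was read by FLIPR in low divalent cation buffer (0.3 mM Ca2+, 0 mM Mg2+). IC50 came from percent inhibition relative to reference antagonist A438079.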

The IC50 is the concentration at which inhibition is half-maximal.

For the compound `O=c1onc(Cc2c(F)cccc2Cl)n1CC1CCC(F)(F)C1` (racemic) [Example 128, 3-[(2-chloro-6-fluorophenyl)methyl]-4-[(3,3-difluorocyclopentyl)methyl]-4,5-dihydro-1,2,4-oxadiazol-5-one], the IC50 against P2X7 receptor [1] is 115 nM; at P2X7 receptor [2], 45.2 nM; on P2X7 receptor [3], less than 200 nM.

As for `O=c1onc(Cc2c(F)cccc2Cl)n1CC1CCC(F)(F)C1` (single isomer, unassigned) [Example 149, 3-(2-chloro-6-fluorobenzyl)-4-[(3,3-difluorocyclopentyl)methyl]-1,2,4-oxadiazol-5(4H)-one], the concentration for half-maximal inhibition (IC50) is 66 nM on P2X7 receptor [1], 68.6 nM on P2X7 receptor [2] and less than 200 nM at P2X7 receptor [3].

Turning to `O=c1onc(Cc2ccc(F)cc2)n1Cc1c(F)cccc1Cl` [Example 1, 4-[(2-chloro-6-fluorophenyl)methyl]-3-[(4-fluorophenyl)methyl]-4,5-dihydro-1,2,4-oxadiazol-5-one], the half-maximal inhibitory concentration (IC50) against P2X7 receptor [1] is 581 nM; at P2X7 receptor [2] it was 247 nM; on P2X7 receptor [3] it was 200 to 1000 nM.

Turning to `Cc1cc(F)ccc1Cn1c(Cc2c(F)cccc2Cl)noc1=O` [Example 25, 3-[(2-chloro-6-fluorophenyl)methyl]-4-[(4-fluoro-2-methylphenyl)methyl]-4,5-dihydro-1,2,4-oxadiazol-5-one], the IC50 on P2X7 receptor [1] is 115 nM; on P2X7 receptor [2], 51.1 nM; at P2X7 receptor [3] it was less than 200 nM.

On to `O=c1onc(Cc2c(F)cccc2Cl)n1Cc1cccc(F)c1` [Example 26, 3-[(2-chloro-6-fluorophenyl)methyl]-4-[(3-fluorophenyl)methyl]-4,5-dihydro-1,2,4-oxadiazol-5-one], for which the IC50 is 329 nM against P2X7 receptor [1], 182 nM at P2X7 receptor [2] and 200 to 1000 nM at P2X7 receptor [3].

On to `CC(c1ccc(F)cc1)n1c(Cc2c(F)cccc2Cl)noc1=O` (stereo not drawn) [Example 48, 3-[(2-chloro-6-fluorophenyl)methyl]-4-[1-(4-fluorophenyl)ethyl]-4,5-dihydro-1,2,4-oxadiazol-5-one], for which the IC50 against P2X7 receptor [1] was 340 nM; on P2X7 receptor [2] it was 386 nM; on P2X7 receptor [3], 200 to 1000 nM.

Take `O=c1onc(Cc2c(F)cccc2Cl)n1Cc1ccc(F)cc1` [Example 55, 3-[(2-chloro-6-fluorophenyl)methyl]-4-[(4-fluorophenyl)methyl]-4,5-dihydro-1,2,4-oxadiazol-5-one]: the IC50 at P2X7 receptor [1] is 50 nM; on P2X7 receptor [2], 33.8 nM; at P2X7 receptor [3], 200 to 1000 nM.

In the case of `O=c1onc(Cc2c(F)cccc2Cl)n1Cc1ccc(F)cc1Cl` [Example 60, 4-[(2-chloro-4-fluorophenyl)methyl]-3-[(2-chloro-6-fluorophenyl)methyl]-4,5-dihydro-1,2,4-oxadiazol-5-one], the results for the IC50 on P2X7 receptor [1], at P2X7 receptor [2] and on P2X7 receptor [3] were 366 nM, 623 nM and 200 to 1000 nM, respectively.

As to `O=c1onc(Cc2c(F)cccc2Cl)n1Cc1ccc(F)cc1F` [Example 61, 3-[(2-chloro-6-fluorophenyl)methyl]-4-[(2,4-difluorophenyl)methyl]-4,5-dihydro-1,2,4-oxadiazol-5-one], the IC50 against P2X7 receptor [1] is 293 nM; at P2X7 receptor [2], 149 nM; on P2X7 receptor [3], 200 to 1000 nM.

Regarding `O=c1onc(Cc2c(F)cccc2Cl)n1Cc1ccc(Cl)cc1` [Example 65, 3-[(2-chloro-6-fluorophenyl)methyl]-4-[(4-chlorophenyl)methyl]-4,5-dihydro-1,2,4-oxadiazol-5-one], the values for the IC50 at P2X7 receptor [1], at P2X7 receptor [2] and at P2X7 receptor [3] were 318 nM, 348 nM and 200 to 1000 nM, respectively.

Take `O=c1onc(Cc2c(F)cccc2Cl)n1Cc1ccc(C(F)(F)F)o1` [Example 66, 3-[(2-chloro-6-fluorophenyl)methyl]-4-{[5-(trifluoromethyl)furan-2-yl]methyl}-4,5-dihydro-1,2,4-oxadiazol-5-one]: the figures for the IC50 against P2X7 receptor [1], at P2X7 receptor [2] and at P2X7 receptor [3] were 456 nM, 1500 nM and 200 to 1000 nM, respectively.

Take `O=c1onc(Cc2cccc(Cl)c2Cl)n1Cc1ccc(F)cc1` [Example 71, 3-[(2,3-dichlorophenyl)methyl]-4-[(4-fluorophenyl)methyl]-4,5-dihydro-1,2,4-oxadiazol-5-one]: the results for the IC50 against P2X7 receptor [1], on P2X7 receptor [2] and at P2X7 receptor [3] were 461 nM, 1160 nM and 200 to 1000 nM, respectively.

With `O=c1onc(Cc2ccc(F)cc2Cl)n1Cc1ccc(F)cc1` [Example 73, 3-[(2-chloro-4-fluorophenyl)methyl]-4-[(4-fluorophenyl)methyl]-4,5-dihydro-1,2,4-oxadiazol-5-one], the IC50 is 670 nM against P2X7 receptor [1], 423 nM on P2X7 receptor [2] and 200 to 1000 nM on P2X7 receptor [3].

Regarding `O=c1onc(Cc2ccccc2Cl)n1Cc1ccc(F)cc1` [Example 76, 3-[(2-chlorophenyl)methyl]-4-[(4-fluorophenyl)methyl]-4,5-dihydro-1,2,4-oxadiazol-5-one], the results for the IC50 against P2X7 receptor [1], at P2X7 receptor [2] and on P2X7 receptor [3] were 168 nM, 401 nM and 200 to 1000 nM, respectively.

As for `O=c1onc(Cc2cccc(F)c2)n1Cc1c(F)cccc1Cl` [Example 81, 4-[(2-chloro-6-fluorophenyl)methyl]-3-[(3-fluorophenyl)methyl]-4,5-dihydro-1,2,4-oxadiazol-5-one], the figures for the IC50 against P2X7 receptor [1], at P2X7 receptor [2] and on P2X7 receptor [3] were 619 nM, 292 nM and 200 to 1000 nM, respectively.

For `O=c1onc(Cc2c(F)cccc2Cl)n1CC1CCCCC1` [Example 82, 3-[(2-chloro-6-fluorophenyl)methyl]-4-(cyclohexylmethyl)-4,5-dihydro-1,2,4-oxadiazol-5-one], the IC50 was 30 nM at P2X7 receptor [1], 21.4 nM on P2X7 receptor [2] and less than 200 nM on P2X7 receptor [3].

Consider `O=c1onc(Cc2c(F)cccc2Cl)n1CC1CCC(F)(F)CC1` [Example 84, 3-[(2-chloro-6-fluorophenyl)methyl]-4-[(4,4-difluorocyclohexyl)methyl]-4,5-dihydro-1,2,4-oxadiazol-5-one], for which the IC50 at P2X7 receptor [1] is 3.4 nM; on P2X7 receptor [2], 8.43 nM; at P2X7 receptor [3] it was less than 200 nM.
